Source: paper PMC7688903 (Frontiers in Microbiology, 2020)
Values after ≈ are worked out from the molar mass of the structure shown. “Also recorded” adds a separate entry of the source. Where a name gives a salt, the structure may show the parent alone. Read-outs that look alike come from different tables or passages of the source. Where a SMILES comes first, the peptide text is derived from it. Where no end group is shown, it is not given here. [ ]: non-standard residue; d: D form. 2Thi = N[C@@H](Cc1cccs1)C(=O)O

Columns and labels:
E. coli ATCC 25922 = format: cell-based, Escherichia coli; settings: ATCC 25922, 20 h
Protocol: (§1) The antimicrobial activities of the peptides were tested against E. coli ATCC 25922, P. aeruginosa ATCC 27853, carbapenem-resistant P. aeruginosa SIPI-012, A. baumannii ATCC 19606, carbapenem-resistant A. baumannii SIPI-025, S. aureus ATCC 25923, and C. albicans ATCC 10231. The minimum inhibitory concentration (MIC) values were determined using the microdilution method according to Clinical and Laboratory Standards Institute guidelines ([CLSI, 2008], [2012]). The peptides were dissolved in 10 mM PB to a concentration of 1280 μg/mL as stock solutions.
(§2) For inoculum preparation of bacteria, morphologically similar colonies selected from fresh MH agar plates were transferred using a loop into approximately 10 mL of MH broth in a capped test tube and vortexed. The suspension was adjusted with MH broth to achieve a turbidity equivalent to a 0.5 McFarland standard (BaSO4 solution prepared spectrophotometrically). A working suspension was prepared by making a 1:15 dilution followed by a 1:20 dilution of the stock suspension with MH broth medium to obtain approximately 5 × 10^5 CFU/mL. For inoculum preparation of yeast, five fresh colonies of approximately 1 mm diameter were picked from 24-hour-old cultures of C. albicans and suspended in 5 mL of sterile 0.85% saline. The resulting suspension was vortexed and the cell density was adjusted by adding sufficient sterile saline to achieve a turbidity equivalent to a 0.5 McFarland standard. A working suspension was prepared by making a 1:100 dilution followed by a 1:20 dilution of the stock suspension with RPMI 1640 broth medium to obtain 0.5 × 10^3 to 2.5 × 10^3 CFU/mL. Intermediate twofold dilutions of the peptides were prepared in MH broth and RPMI 1640 medium, and 90 μL aliquots were added to each well in addition to 10 μL of the inoculum prepared above.
(§3) Each plate included a growth control well and a sterility (uninoculated) control well. Colistin, vancomycin hydrochloride, and amphotericin B were used as positive controls for gram-negative bacteria, gram-positive bacteria, and fungi, respectively. The bacterial and fungal plates were incubated at 37°C for 20 h and 35°C for 48 h, respectively, both under ambient atmosphere. The inhibition of microbial growth was assessed visually. The MICs were determined from independent triplicate assays.

P. aeruginosa ATCC 27853 = format: cell-based, Pseudomonas aeruginosa; settings: ATCC 27853, 20 h
Protocol: as §1, §2, §3

[1] = system: carbapenem-resistant P. aeruginosa (CRPA) SIPI-012; format: cell-based, Pseudomonas aeruginosa; settings: carbapenem-resistant (CRPA) SIPI-012, 20 h
Protocol: as §1, §2, §3

A. baumannii ATCC 19606 = format: cell-based, Acinetobacter baumannii; settings: ATCC 19606, 20 h
Protocol: as §1, §2, §3

[2] = system: carbapenem-resistant A. baumannii (CRAB) SIPI-025; format: cell-based, Acinetobacter baumannii; settings: carbapenem-resistant (CRAB) SIPI-025, 20 h
Protocol: as §1, §2, §3

S. aureus ATCC 25923 = test: microbe, parasite or virus in culture; format: cell-based, Staphylococcus aureus
Protocol: as §1, §2, §3

C. albicans ATCC 10231 = test: microbe, parasite or virus in culture; format: cell-based, Candida albicans
Protocol: as §1, §2, §3

[3] = system: proteases secreted by S. aureus ATCC 25923; test: in vitro; settings: for remaining at 24 h, 0.5 mg/mL: Staphylococcus aureus, S. aureus ATCC 25923 culture supernatant, pH 8
Protocol: The stabilities of the peptides toward proteases secreted by E. coli ATCC 25922, P. aeruginosa ATCC 27853, A. baumannii ATCC 19606, S. aureus ATCC 25923, and C. albicans ATCC 10231 were also examined. Microbial supernatants were prepared by resuspending single colonies of each strain in 20 mL of an appropriate culture medium followed by incubation at 37°C overnight. MH broth and 2% tryptone/2% dextrose were used as the culture media for bacteria and yeast, respectively. Each culture was then centrifuged at 12,000 × g for 10 min and the supernatant was adjusted to pH 8.0 with HCl or NaOH and then filtered through a 0.22 μm sterile filter membrane ([Zaet et al., 2017]). The peptides were then dissolved in the filtered supernatants to a concentration of 0.5 mg/mL, and the peptide-free supernatants were used as negative controls. The samples were incubated at 37°C for 24 h in a water bath and then analyzed by RP-HPLC as described above.

human erythrocytes = test: Hemolytic activity assay; format: cell-based; settings: human RBC in PB, 37°C, 1 h, OD420, total lysis control 0.1% SDS, three technical replicates
Protocol: Whole blood was obtained from a healthy volunteer. The red blood cells (RBC) were then centrifuged (800 × g, 10 min), washed twice with PB, resuspended in 1 mL of PB, and incubated with various concentrations of the peptides (32–128 μM) at 37°C for 1 h. As a positive control, total lysis of the RBC was accomplished by incubation with 0.1% SDS. For each condition, three technical replicates were performed. After incubation, the RBC were centrifuged at 800 × g for 10 min and the amount of hemoglobin released into the supernatant was determined by measuring the optical density OD420 using a SpectraMax i3x microplate reader (Molecular Devices) ([Zaet et al., 2017]).

RAW 264.7 cells = test: Cell viability assay (MTT); format: cell-based, mouse; settings: 1–128 μM peptide in DMEM with 4% FBS, 42 h, 595 nm, triplicate
Protocol: The peptides were dissolved in ddH2O to a concentration of 256 μM. RAW 264.7 cells were cultured in 100 μL of DMEM containing 10% FBS and seeded at a density of 1 × 10^4 cells in a 96-well culture plate. The plate was incubated at 37°C under 5% CO2 atmosphere overnight. After attaining 80% confluency, the cells were treated with various concentrations of the peptides (1–128 μM) dissolved in DMEM containing 4% FBS for 42 h. Cytotoxicity was determined using the MTT tetrazolium reduction assay and quantified spectrophotometrically at 595 nm using a SpectraMax i3x microplate reader. The cell viability was calculated with respect to control samples treated only with DMEM containing 4% FBS ([Khara et al., 2016]). Each test was done in triplicate and the concentration required for 50% inhibition of viability (IC50) was determined.

human plasma proteases = test: in vitro
Trypsin = test: trypsin in 0.1 M NH4HCO3 buffer (pH 8.2); settings: 37°C, up to 24 h

Row | Compound | MIC (E. coli ATCC 25922) | MIC (P. aeruginosa ATCC 27853) | MIC [1] | MIC (A. baumannii ATCC 19606) | MIC [2] | MIC (S. aureus ATCC 25923; ATCC 25923, 20 h) | MIC (C. albicans ATCC 10231; ATCC 10231, 48 h) | remaining at 24 h, 0.5 mg/mL [3] | Hemolysis rate (%) (human erythrocytes; 64 μM) | Hemolysis rate (%) (human erythrocytes; 128 μM) | IC50 (RAW 264.7 cells) | metabolised at 2 h, 0.1 mg/mL (human plasma proteases) | metabolised at 4 h, 0.1 mg/mL (human plasma proteases) | fragment found (Trypsin) | MIC (C. albicans ATCC 10231; Candida albicans, ATCC10231, C. albicans ATCC 10231, RPMI 1640, 35°C, 48 h, visual, independent triplicate assays, read-out: MIC) | Percent of remained peptide amount after incubation (%) ([3]; S. aureus ATCC 25923 culture supernatant (MH broth), pH 8.0, 0.22 μm filtered, peptide 0.5 mg/mL, 37°C, 24 h, RP-HPLC) | MIC (S. aureus ATCC 25923; Staphylococcus aureus, ATCC25923, 20 h)
1 | CC(C)C[C@H](NC(=O)[C@H](Cc1ccc(O)cc1)NC(=O)[C@H](CCCCN)NC(=O)[C@H](CC(C)C)NC(=O)[C@H](CC(C)C)NC(=O)[C@@H](CCCCN)NC(=O)[C@@H](CCCCN)NC(=O)[C@H](Cc1ccccc1)NC(=O)[C@H](CC(C)C)NC(=O)[C@H](CCCNC(=N)N)NC(=O)[C@@H](N)CCCCN)C(=O)N[C@@H](CCCNC(=N)N)C(=O)N[C@H](CCCCN)C(=O)N[C@@H](Cc1ccccc1)C(N)=O [DP04] (H-KRLF[dK][dK]LLKYLR[dK]F-NH2) | 1 µg/mL (≈ 0.532 µM) | 1 µg/mL (≈ 0.532 µM) | 4 µg/mL (≈ 2.13 µM) | 2 µg/mL (≈ 1.06 µM) | 1 µg/mL (≈ 0.532 µM) | 0.5 µg/mL (≈ 0.266 µM) | 4 µg/mL (≈ 2.13 µM) | 63.7 ± 8.1% | 38.84 ± 1.61% | 58.26 ± 1.84% | 34.7 ± 3.69 µM | > 40% | > 50% | – | – | – | –
2 | RRIFKRLFKYLRRF-NH2 [LP02] | 2 µg/mL | 2 µg/mL | 8 µg/mL | 2 µg/mL | 4 µg/mL | 1 µg/mL | 8 µg/mL | 19.7 ± 8.58% | 24.18 ± 2.01% | 45.40 ± 2.40% | 14.4 ± 1.44 µM | > 40% | > 50% | – | – | – | –
3 | KRLFkkLLKYLRkF | – | – | – | – | – | – | – | – | – | – | – | – | – | (k) kLLK (Y) 6–9, major, 18 h; also recorded: (K) YLR (k) 10–12, major, 18 h; also recorded: (K) YLRkF 10–14, major, 18 h; also recorded: (K) RLFk (k) 2–5, major, 18 h | – | – | –
4 | krLFkkLLkYLrkF | – | – | – | – | – | – | – | – | – | – | – | – | – | krLFkkLLkYLr (k) 1–12, major, 18 h; also recorded: (r) LFkkLLkYLr (k) 3–12, major, 18 h | – | – | –
5 | KRLFKRLFKYLRRF-NH2 [LP01] | 2 µg/mL | 1 µg/mL | 4 µg/mL | 2 µg/mL | 2 µg/mL | 1 µg/mL | 4 µg/mL | 33.3 ± 5.69% | 29.58 ± 0.83% | 37.14 ± 1.29 % | 16.6 ± 3.79 µM | > 40% | > 50% | – | – | – | –
6 | C[C@@H]1[C@H](O)[C@@H](C)/C=C/C=C/C=C/C=C/C=C/C=C/C=C/[C@H](O[C@@H]2O[C@H](C)[C@@H](O)[C@H](N)[C@@H]2O)C[C@@H]2O[C@](O)(C[C@@H](O)C[C@@H](O)[C@H](O)CC[C@@H](O)C[C@@H](O)CC(=O)O[C@H]1C)C[C@H](O)[C@H]2C(=O)O [AmB, amphotericin B, reference compound] | – | – | – | – | – | – | – | – | – | – | – | – | – | – | 0.25 µg/mL (≈ 0.271 µM) | – | –
7 | CC(C)C[C@H](NC(=O)[C@H](Cc1ccc(O)cc1)NC(=O)[C@H](CCCCN)NC(=O)[C@H](CC(C)C)NC(=O)[C@H](CC(C)C)NC(=O)[C@H](CCCCN)NC(=O)[C@H](CCCCN)NC(=O)[C@H](Cc1cccs1)NC(=O)[C@H](CC(C)C)NC(=O)[C@H](CCCNC(=N)N)NC(=O)[C@@H](N)CCCCN)C(=O)N[C@@H](CCCNC(=N)N)C(=O)N[C@@H](CCCCN)C(=O)N[C@@H](Cc1cccs1)C(N)=O [UP07] (H-KRL[2Thi]KKLLKYLRK[2Thi]-NH2) | 1 µg/mL (≈ 0.528 µM) | 1 µg/mL (≈ 0.528 µM) | 4 µg/mL (≈ 2.11 µM) | 2 µg/mL (≈ 1.06 µM) | 2 µg/mL (≈ 1.06 µM) | 1 µg/mL (≈ 0.528 µM) | 4 µg/mL (≈ 2.11 µM) | – | 18.23 ± 2.76 % | 30.10 ± 2.61 % | 17.5 ± 2.99 µM | > 40% | > 50% | – | – | 24.86 ± 3.88% | –
8 | CN[C@H](CC(C)C)C(=O)N[C@H]1C(=O)N[C@@H](CC(N)=O)C(=O)N[C@H]2C(=O)N[C@H]3C(=O)N[C@H](C(=O)N[C@H](C(=O)O)c4cc(O)cc(O)c4-c4cc3ccc4O)[C@H](O)c3ccc(c(Cl)c3)Oc3cc2cc(c3O[C@@H]2O[C@H](CO)[C@@H](O)[C@H](O)[C@H]2O[C@H]2C[C@](C)(N)[C@H](O)[C@H](C)O2)Oc2ccc(cc2Cl)[C@H]1O [Van, vancomycin hydrochloride, reference compound] | – | – | – | – | – | – | – | – | – | – | – | – | – | – | – | – | 0.5 µg/mL
9 | CC(C)C[C@H](NC(=O)[C@H](CCCCN)NC(=O)[C@H](CCCCN)NC(=O)[C@H](Cc1ccccc1)NC(=O)[C@H](CC(C)C)NC(=O)[C@H](CCCNC(=N)N)NC(=O)[C@@H](N)CCCCN)C(=O)N[C@@H](CC(C)C)C(=O)N[C@@H](CCCCN)C(=O)N[C@@H](Cc1ccc(O)cc1)C(=O)N[C@@H](CC(C)C)C(=O)N[C@@H](CCCNC(=N)N)C(=O)N[C@H](CCCCN)C(=O)N[C@@H](Cc1ccccc1)C(N)=O [DP03] (H-KRLFKKLLKYLR[dK]F-NH2) | 1 µg/mL (≈ 0.532 µM) | 1 µg/mL (≈ 0.532 µM) | 8 µg/mL (≈ 4.25 µM) | 2 µg/mL (≈ 1.06 µM) | 2 µg/mL (≈ 1.06 µM) | 1 µg/mL (≈ 0.532 µM) | 4 µg/mL (≈ 2.13 µM) | 73.5 ± 4.83% | 41.96 ± 4.14% | 51.55 ± 3.89% | 45 ± 5.96 µM | > 40% | > 50% | – | – | – | –
